Target: T1, sensory rhodopsin II (NpSRII) (Natronomonas pharaonis, UniProt P42196)
T1 construct: gene sop2; His-tagged, expressed in E. coli BL21star from pET27a, Ni-NTA and size exclusion; crystallised in LCP
T1 sequence (P42196 1-239): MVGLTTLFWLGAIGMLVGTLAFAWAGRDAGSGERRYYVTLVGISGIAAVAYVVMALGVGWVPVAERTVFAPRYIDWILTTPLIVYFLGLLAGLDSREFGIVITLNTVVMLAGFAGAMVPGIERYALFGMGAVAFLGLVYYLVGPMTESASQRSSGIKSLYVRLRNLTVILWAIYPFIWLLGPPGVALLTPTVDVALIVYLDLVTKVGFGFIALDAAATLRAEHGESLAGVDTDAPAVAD
Experiment: serial synchrotron X-ray crystallography
Assay type: binding
Settings: covalent, room temperature

`CC1=C(/C=C/C(C)=C/C=C/C(C)=C/C=O)C(C)(C)CCC1` [all-trans retinal] was tested, and the “serial synchrotron X-ray crystallography” value (protonated Schiff base to Lys205, dark resting state, LCP microcrystals) was “the resting and O-state populations were refined with an all-trans retinal”.
With `CC1=C(/C=C/C(C)=C/C=C/C(C)=C\C=O)C(C)(C)CCC1` [13-cis retinal] the “serial synchrotron X-ray crystallography” value (Lys205, photoisomerized in situ from all-trans retinal, M-state at partial occupancy, continuous 488 nm illumination) was “the population of the M-state was given a 13-cis retinal”.
